Laboratory results published in PubChem BioAssay AID1259407 (Chemical Carcinogenesis Research Information System (CCRIS), 2018).
Active and inactive are the calls of the source. How the calls were made is not given here.

System: CCRIS mutagenicity, Ames/micronucleus/aberration tests
Assay: CCRIS mutagenicity studies
[1] = Test System: AMES SALMONELLA TYPHIMURIUM, Strain/Indicator: TA97, Metabolic Activation: HAMSTER, LIVER, S-9, AROCLOR 1254 (10 OR 30%), Method: PREINCUBATION
[2] = Test System: AMES SALMONELLA TYPHIMURIUM, Strain/Indicator: TA97, Metabolic Activation: NONE, Method: PREINCUBATION
[3] = Test System: AMES SALMONELLA TYPHIMURIUM, Strain/Indicator: TA97, Metabolic Activation: RAT, LIVER, S-9, AROCLOR 1254 (10 OR 30%), Method: PREINCUBATION
[4] = Test System: AMES SALMONELLA TYPHIMURIUM, Strain/Indicator: TA98, Metabolic Activation: HAMSTER, LIVER, S-9, AROCLOR 1254 (10 OR 30%), Method: PREINCUBATION
[5] = Test System: AMES SALMONELLA TYPHIMURIUM, Strain/Indicator: TA98, Metabolic Activation: RAT, LIVER, S-9, AROCLOR 1254 (10 OR 30%), Method: PREINCUBATION
[6] = Test System: AMES SALMONELLA TYPHIMURIUM, Strain/Indicator: TA100, Metabolic Activation: HAMSTER, LIVER, S-9, AROCLOR 1254 (10 OR 30%), Method: PREINCUBATION
[7] = Test System: AMES SALMONELLA TYPHIMURIUM, Strain/Indicator: TA100, Metabolic Activation: RAT, LIVER, S-9, AROCLOR 1254 (10 OR 30%), Method: PREINCUBATION
[8] = Test System: AMES SALMONELLA TYPHIMURIUM, Strain/Indicator: TA1535, Metabolic Activation: HAMSTER, LIVER, S-9, AROCLOR 1254 (10 OR 30%), Method: PREINCUBATION
[9] = Test System: AMES SALMONELLA TYPHIMURIUM, Strain/Indicator: TA1535, Metabolic Activation: RAT, LIVER, S-9, AROCLOR 1254 (10 OR 30%), Method: PREINCUBATION
[10] = Test System: AMES SALMONELLA TYPHIMURIUM, Strain/Indicator: TA98, Metabolic Activation: NONE, Method: PREINCUBATION
[11] = Test System: AMES SALMONELLA TYPHIMURIUM, Strain/Indicator: TA100, Metabolic Activation: NONE, Method: PREINCUBATION

`CCC(C)=O` was tested, and the mutagenic call [1] was “inactive; negative”, the mutagenic call [2] was “inactive; negative” and the mutagenic call [3] was “inactive; negative”. For the same compound, the mutagenic call [4] was “inactive; negative”, the mutagenic call [5] was “inactive; negative” and the mutagenic call (Test System: AMES SALMONELLA TYPHIMURIUM, Strain/Indicator: TA98, Metabolic Activation: RAT, LIVER, S-9, AROCLOR 1254, Method: PREINCUBATION) was “inactive; negative”. The mutagenic call (Test System: AMES SALMONELLA TYPHIMURIUM, Strain/Indicator: TA98, Metabolic Activation: RAT, LIVER, S-9, KC 500, Method: PREINCUBATION) was “inactive; negative”, the mutagenic call (Test System: AMES SALMONELLA TYPHIMURIUM, Strain/Indicator: TA98, Metabolic Activation: RAT, LIVER, S-9, PHENOBARBITAL AND BETA-NAPHTHOFLAVONE, Method: PREINCUBATION) was “inactive; negative” and the mutagenic call [6] was “inactive; negative”. For the same compound, the mutagenic call [7] was “inactive; negative”, the mutagenic call (Test System: AMES SALMONELLA TYPHIMURIUM, Strain/Indicator: TA100, Metabolic Activation: RAT, LIVER, S-9, AROCLOR 1254, Method: PREINCUBATION) was “inactive; negative” and the mutagenic call (Test System: AMES SALMONELLA TYPHIMURIUM, Strain/Indicator: TA100, Metabolic Activation: RAT, LIVER, S-9, KC 500, Method: PREINCUBATION) was “inactive; negative”. For the same compound, the mutagenic call (Test System: AMES SALMONELLA TYPHIMURIUM, Strain/Indicator: TA100, Metabolic Activation: RAT, LIVER, S-9, PHENOBARBITAL AND BETA-NAPHTHOFLAVONE, Method: PREINCUBATION) was “inactive; negative”, the mutagenic call (Test System: AMES SALMONELLA TYPHIMURIUM, Strain/Indicator: TA102, Metabolic Activation: NONE, Method: PREINCUBATION) was “inactive; negative” and the mutagenic call (Test System: AMES SALMONELLA TYPHIMURIUM, Strain/Indicator: TA102, Metabolic Activation: RAT, LIVER, S-9, PHENOBARBITAL AND BETA-NAPHTHOFLAVONE, Method: PREINCUBATION) was “inactive; negative”. For the same compound, the mutagenic call (Test System: AMES SALMONELLA TYPHIMURIUM, Strain/Indicator: TA104, Metabolic Activation: NONE, Method: PREINCUBATION) was “inactive; negative”, the mutagenic call (Test System: AMES SALMONELLA TYPHIMURIUM, Strain/Indicator: TA104, Metabolic Activation: RAT, LIVER, S-9, PHENOBARBITAL AND BETA-NAPHTHOFLAVONE, Method: PREINCUBATION) was “inactive; negative” and the mutagenic call [8] was “inactive; negative”. The mutagenic call [9] was “inactive; negative”, the mutagenic call (Test System: AMES SALMONELLA TYPHIMURIUM, Strain/Indicator: TA1535, Metabolic Activation: RAT, LIVER, S-9, AROCLOR 1254, Method: PREINCUBATION) was “inactive; negative” and the mutagenic call (Test System: AMES SALMONELLA TYPHIMURIUM, Strain/Indicator: TA1535, Metabolic Activation: RAT, LIVER, S-9, KC 500, Method: PREINCUBATION) was “inactive; negative”. The mutagenic call (Test System: AMES SALMONELLA TYPHIMURIUM, Strain/Indicator: TA1535, Metabolic Activation: RAT, LIVER, S-9, PHENOBARBITAL AND BETA-NAPHTHOFLAVONE, Method: PREINCUBATION) was “inactive; negative”, the mutagenic call (Test System: AMES SALMONELLA TYPHIMURIUM, Strain/Indicator: TA1537, Metabolic Activation: HAMSTER, LIVER, S-9, AROCLOR 1254 (30%), Method: PREINCUBATION) was “inactive; negative” and the mutagenic call (Test System: AMES SALMONELLA TYPHIMURIUM, Strain/Indicator: TA1537, Metabolic Activation: RAT, LIVER, S-9, AROCLOR 1254 (30%), Method: PREINCUBATION) was “inactive; negative”. For the same compound, the mutagenic call (Test System: AMES SALMONELLA TYPHIMURIUM, Strain/Indicator: TA1537, Metabolic Activation: RAT, LIVER, S-9, AROCLOR 1254, Method: PREINCUBATION) was “inactive; negative”, the mutagenic call (Test System: AMES SALMONELLA TYPHIMURIUM, Strain/Indicator: TA1537, Metabolic Activation: RAT, LIVER, S-9, KC 500, Method: PREINCUBATION) was “inactive; negative” and the mutagenic call (Test System: AMES SALMONELLA TYPHIMURIUM, Strain/Indicator: TA1537, Metabolic Activation: RAT, LIVER, S-9, PHENOBARBITAL AND BETA-NAPHTHOFLAVONE, Method: PREINCUBATION) was “inactive; negative”. For the same compound, the mutagenic call (Test System: AMES SALMONELLA TYPHIMURIUM, Strain/Indicator: TA1538, Metabolic Activation: NONE, Method: PREINCUBATION) was “inactive; negative”, the mutagenic call (Test System: AMES SALMONELLA TYPHIMURIUM, Strain/Indicator: TA1538, Metabolic Activation: RAT, LIVER, S-9, AROCLOR 1254, Method: PREINCUBATION) was “inactive; negative” and the mutagenic call (Test System: AMES SALMONELLA TYPHIMURIUM, Strain/Indicator: TA1538, Metabolic Activation: RAT, LIVER, S-9, KC 500, Method: PREINCUBATION) was “inactive; negative”. For the same compound, the mutagenic call (Test System: E. COLI, Strain/Indicator: WP2UVRA/PKM101, Metabolic Activation: NONE, Method: PREINCUBATION) was “inactive; negative”, the mutagenic call (Test System: E. COLI, Strain/Indicator: WP2UVRA/PKM101, Metabolic Activation: RAT, LIVER, S-9, PHENOBARBITAL AND BETA-NAPHTHOFLAVONE, Method: PREINCUBATION) was “inactive; negative” and the mutagenic call (Test System: E. COLI, Strain/Indicator: WP2 UVRA, Metabolic Activation: NONE, Method: PREINCUBATION) was “inactive; negative”. The mutagenic call (Test System: E. COLI, Strain/Indicator: WP2UVRA, Metabolic Activation: NONE, Method: PREINCUBATION) was “inactive; negative”, the mutagenic call (Test System: E. COLI, Strain/Indicator: WP2 UVRA, Metabolic Activation: RAT, LIVER, S-9, KC 500, Method: PREINCUBATION) was “inactive; negative” and the mutagenic call (Test System: E. COLI, Strain/Indicator: WP2UVRA, Metabolic Activation: RAT, LIVER, S-9, PHENOBARBITAL AND BETA-NAPHTHOFLAVONE, Method: PREINCUBATION) was “inactive; negative”. The mutagenic call (Test System: MOUSE LYMPHOMA, Strain/Indicator: L5178Y (TK+/TK-), Metabolic Activation: NONE, Method: SUSPENSION/PLATE) was “inactive; negative” and the mutagenic call (Test System: MOUSE LYMPHOMA, Strain/Indicator: L5178Y (TK+/TK-), Metabolic Activation: RAT, LIVER, S-9, AROCLOR 1242 AND AROCLOR 1254 (2:1), Method: SUSPENSION/PLATE) was “inactive; negative”.
With `O=[N+]([O-])c1cccc2cc3ccccc3cc12` the mutagenic call [10] was “active; positive”, the mutagenic call (Test System: AMES SALMONELLA TYPHIMURIUM, Strain/Indicator: TA98, Metabolic Activation: RAT, LIVER, S-9, AROCLOR 1254 (10%), Method: PREINCUBATION) was “active; positive” and the mutagenic call [11] was “active; positive”. For the same compound, the mutagenic call (Test System: AMES SALMONELLA TYPHIMURIUM, Strain/Indicator: TA100, Metabolic Activation: RAT, LIVER, S-9, AROCLOR 1254 (10%), Method: PREINCUBATION) was “active; positive”.
For `CS(=N)(=O)CCC(N)C(=O)O` (stereo not drawn), the mutagenic call (Test System: AMES SALMONELLA TYPHIMURIUM, Strain/Indicator: TA102, Metabolic Activation: NONE, Method: STANDARD PLATE) was “inactive; negative” and the mutagenic call (Test System: AMES SALMONELLA TYPHIMURIUM, Strain/Indicator: TA102, Metabolic Activation: RAT, LIVER, S-9, AROCLOR 1254, Method: STANDARD PLATE) was “inactive; negative”.
With `c1cc[c]([Sn]([c]2ccccc2)([c]2ccccc2)[c]2ccccc2)cc1` the mutagenic call (Test System: AMES SALMONELLA TYPHIMURIUM, Strain/Indicator: TA98, Metabolic Activation: NONE, Method: SUSPENSION/PLATE) was “inactive; negative” and the mutagenic call (Test System: AMES SALMONELLA TYPHIMURIUM, Strain/Indicator: TA100, Metabolic Activation: NONE, Method: SUSPENSION/PLATE) was “inactive; negative”.
With `Oc1ccc(Cl)cc1Sc1cc(Cl)ccc1O` the mutagenic call [1] was “inactive; negative”, the mutagenic call [2] was “inactive; negative” and the mutagenic call [3] was “inactive; negative”. The mutagenic call [4] was “inactive; negative”, the mutagenic call [10] was “inactive; negative” and the mutagenic call [5] was “inactive; negative”. For the same compound, the mutagenic call [6] was “inactive; negative”, the mutagenic call [11] was “inactive; negative” and the mutagenic call [7] was “inactive; negative”. The mutagenic call [8] was “inactive; negative”, the mutagenic call (Test System: AMES SALMONELLA TYPHIMURIUM, Strain/Indicator: TA1535, Metabolic Activation: NONE, Method: PREINCUBATION) was “inactive; negative” and the mutagenic call [9] was “inactive; negative”.
